According to patent US7119090B2, “Pyrrole substituted 2-indolinone protein kinase inhibitors” (Sugen, Inc., priority 1998, dated 2006):

Columns and labels:
C6 glioma tumors = C6 glioma tumors subcutaneously implanted in mice, oral administration; assay type: in vivo; conditions: 200 mg/kg/day, day 18 post-implantation, subcutaneous C6 tumors in BALB/c nu/nu mice
Protocol: The following protocol can be used to perform xenograft experiments:
Female athymic mice (BALB/c, nu/nu) are obtained from Simonsen Laboratories (Gilroy, Calif.). All animals are maintained under clean-room conditions in Micro-isolator cages with Alpha-dri bedding. They receive sterile rodent chow and water ad libitum.
Cell lines are grown in appropriate medium (for example, MEM, DMEM, Ham's F10, or Ham's F12 plus 5%-10% fetal bovine serum (FBS) and 2 mM glutamine (GLN)). All cell culture media, glutamine, and fetal bovine serum are purchased from Gibco Life Technologies (Grand Island, N.Y.) unless otherwise specified. All cells are grown in a humid atmosphere of 90-95% air and 5-10% CO2 at 37° C. All cell lines are routinely subcultured twice a week and are negative for mycoplasma as determined by the Mycotect method (Gibco).
Cells are harvested at or near confluency with 0.05% Trypsin-EDTA and pelleted at 450 x g for 10 min. […] Tumor growth is measured over 3 to 6 weeks using venier calipers. Tumor volumes are calculated as a product of length×width×height unless otherwise indicated. P values are calculated using the Students t-test. […]
The compounds also maintain excellent activity when tested in vivo. […] Tumor growth was measured using vernier calipers and tumor volumes were calculated as the product of length×width×height. […]

PDGFR = molecular target: T1, PDGFR (Homo sapiens, UniProt P09619); assay: Inhibition constant (Ki) against PDGFR; assay type: biochemical; conditions: data not shown
T1 construct: expressed in transfected cells; host or cells: NIH 3T3 cells expressing PDGFR-β (lysate, Screening Lab, SUGEN)

[1] = Potency in vitro (data not shown)
HUV-EC-C cells (aFGF) = assay: HUV-EC-C assay, aFGF (ECGF)-stimulated 3H-thymidine incorporation (HUVEC-aFGF); assay type: cell-based; conditions: Homo sapiens; Table 1
Protocol: (§1) The following protocol may also be used to measure a compound's activity against PDGF-R, FGF-R, VEGF, aFGF or Flk-1/KDR, all of which are naturally expressed by HUV-EC cells.
(§2) 1. […] After cells have detached from the flask, add an equal volume of assay medium and transfer to a 50 ml sterile centrifuge tube (Fisher Scientific, catalogue no. 05-539-6).
(§3) 2. Wash the cells with about 35 ml assay medium in the 50 ml sterile centrifuge tube by adding the assay medium, centrifuge for 10 minutes at approximately 200x g, aspirate the supernatant, and resuspend with 35 ml D-PBS. Repeat the wash two more times with D-PBS, resuspend the cells in about 1 ml assay medium/is cm^2 of tissue culture flask. Assay medium consists of F12K medium (Gibco BRL, catalogue no. 21127-014) and 0.5% heat-inactivated fetal bovine serum. Count the cells with a Coulter Counter® (Coulter Electronics, Inc.) and add assay medium to the cells to obtain a concentration of 0.8-1.0×10^5 cells/ml.
(§4) 3. Add cells to 96-well flat-bottom plates at 100 μl/well or 0.8-1.0×10^4 cells/well, incubate −24h at 37° C., 5% CO2.
(§5) 1. Make up two-fold test compound titrations in separate 96-well plates, generally 50 μM on down to 0 μM. Use the same assay medium as mentioned in day 0, step 2 above. Titrations are made by adding […] of test compound at 200 μM (4X the final well concentration) to the top well of a particular plate column. Since the stock test compound is usually 20 mM in DMSO, the 200 μM drug concentration contains 2% DMSO.
(§6) A diluent made up to 2% DMSO in assay medium (F12K+0.5% fetal bovine serum) is used as diluent for the test compound titrations in order to dilute the test compound but keep the DMSO concentration constant. Add this diluent to the remaining wells in the column at 60 μl/well. Take 60 μl from the 120 μl of 200 μM test compound dilution in the top well of the column and mix with the 60 μl in the second well of the column. Take 60 μl from this well and mix with the 60 μl in the third well of the column, and so on until two-fold titrations are completed. When the next-to-the-last well is mixed, take 60 μl of the 120 μl in this well and discard it. Leave the last well with 60 μl of DMSO/media diluent as a non-test compound-containing control. Make 9 columns of titrated test compound, enough for triplicate wells each for: (1) VEGF (obtained from Pepro Tech Inc., catalogue no. 100-200, (2) endothelial cell growth factor (ECGF) (also known as acidic fibroblast growth factor, or aFGF) (obtained from Boehringer Mannheim Biochemica, catalogue no. 1439 600), or, (3) human PDGF B/B (1276-956, Boehringer Mannheim, Germany) and assay media control. ECGF comes as a preparation with sodium heparin.
(§7) 2. Transfer 50 μl/well of the test compound dilutions to the 96-well assay plates containing the 0.8-1.0×10^4 cells/100 μl/well of the HUV-EC-C cells from day 0 and incubate […] at 37° C., 5% CO2.
(§8) 3. In triplicate, add 50 μl well of […] VEGF, 20 ng/ml ECGF, or media control to each test compound condition. As with the test compounds, the growth factor concentrations are 4X the desired final concentration. Use the assay media from day 0 step 2 to make the concentrations of growth factors. Incubate approximately 24 hours at 37° C., 5% CO2. Each well will have 50 μl test compound dilution, 50 μl growth factor or media, and 100 μl cells, which calculates to 200 μl/well total. Thus the 4X concentrations of test compound and growth factors become 1X once everything has been added to the wells.
(§9) 1. Add ^3H-thymidine (Amersham, catalogue no. TRK-686) at 1 μCi/well (10 μl/well of 100 μCi/ml solution made up in RPMI media +10% heat-inactivated fetal bovine serum) and incubate ˜24 h at 37° C., 5% CO2. RPMI is obtained from Gibco BRL, catalogue no. 11875-051.
(§10) 1. Freeze plates overnight at −20° C. […]

HUV-EC-C cells (VEGF) = assay: HUV-EC-C assay, VEGF-stimulated 3H-thymidine incorporation (HUVEC-VEGF); assay type: cell-based; conditions: Homo sapiens; Table 1
Protocol: as §1, §2, §3, §4, §5, §6, §7, §8, §9, §10

T1 sequence (P09619 33-1106): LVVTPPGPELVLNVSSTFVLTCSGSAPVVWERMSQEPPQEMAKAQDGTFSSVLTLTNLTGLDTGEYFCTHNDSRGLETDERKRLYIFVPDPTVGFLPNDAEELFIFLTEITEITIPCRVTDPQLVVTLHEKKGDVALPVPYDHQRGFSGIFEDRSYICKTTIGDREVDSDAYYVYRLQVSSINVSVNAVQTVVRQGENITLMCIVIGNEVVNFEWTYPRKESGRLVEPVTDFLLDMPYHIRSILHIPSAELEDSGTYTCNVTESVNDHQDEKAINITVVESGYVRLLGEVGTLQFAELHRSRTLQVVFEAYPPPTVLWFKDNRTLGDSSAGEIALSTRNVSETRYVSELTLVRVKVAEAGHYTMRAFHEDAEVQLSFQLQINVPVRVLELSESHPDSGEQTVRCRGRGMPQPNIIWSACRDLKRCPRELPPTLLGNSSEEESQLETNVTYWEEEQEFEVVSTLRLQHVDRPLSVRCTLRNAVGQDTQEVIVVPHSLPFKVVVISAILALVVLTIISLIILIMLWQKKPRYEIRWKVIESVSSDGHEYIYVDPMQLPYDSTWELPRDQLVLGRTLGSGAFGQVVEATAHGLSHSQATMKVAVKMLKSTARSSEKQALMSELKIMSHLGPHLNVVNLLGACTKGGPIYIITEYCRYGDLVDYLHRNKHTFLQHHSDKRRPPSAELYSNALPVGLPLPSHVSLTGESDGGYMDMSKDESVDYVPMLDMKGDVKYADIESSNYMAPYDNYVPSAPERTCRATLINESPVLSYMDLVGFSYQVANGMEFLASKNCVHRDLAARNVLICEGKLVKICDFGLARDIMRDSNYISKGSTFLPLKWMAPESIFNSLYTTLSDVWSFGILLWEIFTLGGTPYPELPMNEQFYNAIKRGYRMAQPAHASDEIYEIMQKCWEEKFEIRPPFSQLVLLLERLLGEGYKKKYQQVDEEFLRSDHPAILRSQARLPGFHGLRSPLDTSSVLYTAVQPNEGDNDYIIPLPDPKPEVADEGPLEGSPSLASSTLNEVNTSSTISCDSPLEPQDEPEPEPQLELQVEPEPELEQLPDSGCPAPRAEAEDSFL

SMILES: CC1C(CCC(=O)O)=CNC1/C=C1\C(=O)Nc2ccccc21 (stereo not drawn) [Compound 71]
- inhibition of tumor growth (C6 glioma tumors): 51%

SMILES: Cc1[nH]c(/C=C2\C(=O)Nc3ccccc32)c(C)c1CCC(=O)O [Example 5, 3-[2,4-Dimethyl-5-(2-oxo-1,2-dihydroindol-3-ylidenemethyl)-1H-pyrrol-3-yl]-propionic acid]
- Ki (inhibition constant) against PDGFR, compared to compound 70 (PDGFR): significantly smaller

SMILES: O=C(O)CCc1c(/C=C2\C(=O)Nc3ccc(Br)cc32)[nH]c2c1CCCC2 [Compound 65]
- inhibition of tumor growth (C6 glioma tumors): approximately 65%
- potency in vitro compared to compound 5 [1]: almost an order of magnitude greater potency in vitro

SMILES: Cc1[nH]c(/C=C2\C(=O)Nc3ccc(I)cc32)c(C)c1CCC(=O)O [Example 20, 3-[5-(5-Iodo-2-oxo-1,2-dihydroindol-3-ylidenemethyl)-2,4-dimethyl-1H-pyrrol-3-yl]-propionic acid]
- IC50 (HUV-EC-C cells (aFGF)): 5000 nM
- IC50 (HUV-EC-C cells (VEGF)): 290 nM
